Experimental data as given in patent US7329652B2, “Diaminotriazole compounds useful as protein kinase inhibitors” (Vertex Pharamaceuticals Incorporated, priority 2004, dated 2008).
Like-named read-outs stand apart in the source and are kept apart here.

Assays:
JAK-2 enzyme = JAK-2 enzyme (Homo sapiens, UniProt O60674); test: JAK2 inhibition assay (radiometric 33P filter assay); type: biochemical
Method: (§1) Compounds were screened for their ability to inhibit JAK using the assay shown below. Reactions were carried out in a kinase buffer containing 100 mM HEPES (pH 7.4), 1 mM DTT, 10 mM MgCl2, 25 mM NaCl, and 0.01% BSA.
(§2) Substrate concentrations in the assay were 5 μM ATP (200 uCi/μmole ATP) and 1 μM poly(Glu)4Tyr. Reactions were carried out at 25° C. and 1 nM JAK3.
(§3) To each well of a 96 well polycarbonate plate was added 1.5 μl of a candidate JAK3 inhibitor along with 50 μl of kinase buffer containing 2 μM poly(Glu)4Tyr and 10 μM ATP. This was then mixed and 50 μl of kinase buffer containing 2 nM JAK3 enzyme was added to start the reaction. After 20 minutes at room temperature (25° C.), the reaction was stopped with 50 μl of 20% trichloroacetic acid (TCA) that also contained 0.4 mM ATP. The entire contents of each well were then transferred to a 96 well glass fiber filter plate using a TomTek Cell Harvester. After washing, 60 μl of scintillation fluid was added and ^33P incorporation detected on a Perkin Elmer TopCount.
The assays were as described above in Example 25 except that JAK-2 enzyme was used, the final poly(Glu)4Tyr concentration was 15 μM, and final ATP concentration was 12 μM.

JAK3 = target: T1, JAK3 (Homo sapiens, UniProt P52333); test: JAK3 inhibition assay (radiometric 33P filter assay); type: biochemical
T1 sequence (P52333 1-1124): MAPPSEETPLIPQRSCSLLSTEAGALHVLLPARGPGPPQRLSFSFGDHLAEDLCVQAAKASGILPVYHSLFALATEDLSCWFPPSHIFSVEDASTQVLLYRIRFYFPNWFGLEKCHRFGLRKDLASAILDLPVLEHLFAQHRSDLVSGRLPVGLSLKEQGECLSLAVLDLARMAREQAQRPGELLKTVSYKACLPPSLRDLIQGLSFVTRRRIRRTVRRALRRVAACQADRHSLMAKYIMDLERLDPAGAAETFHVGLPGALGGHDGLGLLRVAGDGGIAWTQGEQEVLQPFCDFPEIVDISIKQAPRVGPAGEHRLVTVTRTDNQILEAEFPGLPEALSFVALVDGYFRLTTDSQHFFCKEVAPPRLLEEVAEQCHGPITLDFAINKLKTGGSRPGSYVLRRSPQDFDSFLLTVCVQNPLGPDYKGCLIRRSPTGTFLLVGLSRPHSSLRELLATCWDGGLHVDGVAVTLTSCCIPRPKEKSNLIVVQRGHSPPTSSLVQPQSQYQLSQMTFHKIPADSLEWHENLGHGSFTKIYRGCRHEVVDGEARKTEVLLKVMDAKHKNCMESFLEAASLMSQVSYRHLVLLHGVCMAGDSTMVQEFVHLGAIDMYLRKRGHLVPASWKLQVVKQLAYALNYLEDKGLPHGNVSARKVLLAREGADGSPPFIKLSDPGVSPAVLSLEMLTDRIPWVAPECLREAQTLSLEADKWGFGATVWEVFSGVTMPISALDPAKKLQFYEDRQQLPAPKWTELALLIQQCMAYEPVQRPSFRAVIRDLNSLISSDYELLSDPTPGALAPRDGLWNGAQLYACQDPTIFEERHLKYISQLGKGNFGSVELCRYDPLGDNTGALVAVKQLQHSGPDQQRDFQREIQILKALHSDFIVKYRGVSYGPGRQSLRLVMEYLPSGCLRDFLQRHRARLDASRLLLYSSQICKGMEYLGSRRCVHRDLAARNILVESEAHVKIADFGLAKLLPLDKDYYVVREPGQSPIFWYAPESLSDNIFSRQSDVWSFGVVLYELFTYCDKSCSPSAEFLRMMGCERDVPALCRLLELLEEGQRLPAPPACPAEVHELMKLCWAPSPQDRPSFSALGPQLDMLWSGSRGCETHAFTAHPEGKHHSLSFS
Method: as §1, §2, §3

[1] = 15 μM poly(Glu)4Tyr, 12 μM ATP, read-out: JAK2 inhibition data (Ki)
[2] = 1 μM poly(Glu)4Tyr, 5 μM ATP, 1 nM JAK3, 25° C., read-out: JAK3 inhibition data (Ki)

Sequence of JAK-2 enzyme (O60674 whole entry, species assumed): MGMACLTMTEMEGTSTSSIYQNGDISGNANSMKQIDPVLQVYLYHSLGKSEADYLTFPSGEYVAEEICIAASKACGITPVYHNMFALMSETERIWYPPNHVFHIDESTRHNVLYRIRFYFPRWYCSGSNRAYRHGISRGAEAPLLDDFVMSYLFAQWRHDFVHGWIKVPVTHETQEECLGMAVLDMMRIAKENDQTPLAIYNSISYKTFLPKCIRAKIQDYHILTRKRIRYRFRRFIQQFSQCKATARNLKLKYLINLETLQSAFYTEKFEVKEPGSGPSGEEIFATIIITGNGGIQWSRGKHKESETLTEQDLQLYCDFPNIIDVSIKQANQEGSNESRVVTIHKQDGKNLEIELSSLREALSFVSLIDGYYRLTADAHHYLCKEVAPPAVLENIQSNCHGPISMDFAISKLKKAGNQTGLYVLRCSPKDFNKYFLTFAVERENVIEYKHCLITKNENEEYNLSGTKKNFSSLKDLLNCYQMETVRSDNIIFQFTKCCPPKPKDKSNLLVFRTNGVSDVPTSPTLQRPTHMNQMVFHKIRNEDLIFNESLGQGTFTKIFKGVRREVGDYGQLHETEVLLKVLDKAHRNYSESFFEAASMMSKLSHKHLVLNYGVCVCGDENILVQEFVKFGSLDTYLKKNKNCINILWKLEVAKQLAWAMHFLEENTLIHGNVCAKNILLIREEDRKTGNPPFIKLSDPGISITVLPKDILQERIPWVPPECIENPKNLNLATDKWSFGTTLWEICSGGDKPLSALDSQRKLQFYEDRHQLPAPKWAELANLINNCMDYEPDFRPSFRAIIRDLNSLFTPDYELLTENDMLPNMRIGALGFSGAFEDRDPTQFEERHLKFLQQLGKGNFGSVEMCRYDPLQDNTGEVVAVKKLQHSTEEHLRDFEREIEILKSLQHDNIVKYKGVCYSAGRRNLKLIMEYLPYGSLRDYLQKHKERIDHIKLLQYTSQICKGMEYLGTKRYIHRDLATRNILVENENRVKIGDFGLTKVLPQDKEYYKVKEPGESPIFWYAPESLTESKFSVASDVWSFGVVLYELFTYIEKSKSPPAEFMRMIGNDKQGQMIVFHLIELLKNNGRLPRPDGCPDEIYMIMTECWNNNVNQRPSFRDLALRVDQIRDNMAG

Row | SMILES | Ki (JAK-2 enzyme; [1]) [nM] | Ki (JAK3; [2]) [nM] | Ki (JAK-2 enzyme) [nM] | Ki (JAK3) [nM]
1 | CC(=O)N1CCCN(c2cc(-n3nc(Nc4ccc(NC(=O)NC(C)C)cc4)nc3N)ncn2)CC1 [Compound 86] | < 50 | < 50 | – | –
2 | CC(=O)N1CCCN(c2cc(-n3nc(Nc4ccc(NC(=O)NC(C)(C)C)cc4)nc3N)ncn2)CC1 [Compound 87] | < 50 | < 50 | – | –
3 | CC(=O)N1CCCN(c2cc(-n3nc(Nc4ccc(NC(=O)NC5CCCCC5)cc4)nc3N)ncn2)CC1 [Compound 88] | < 50 | < 50 | – | –
4 | CCOC(=O)CCNC(=O)Nc1ccc(Nc2nc(N)n(-c3cc(N4CCCN(C(C)=O)CC4)ncn3)n2)cc1 [Compound 89] | < 50 | < 50 | – | –
5 | COC(=O)Nc1ccc(Nc2nc(N)n(-c3cc(N4CCCN(C(C)=O)CC4)ncn3)n2)cc1 [Compound 90] | < 50 | < 50 | – | –
6 | CCOC(=O)Nc1ccc(Nc2nc(N)n(-c3cc(N4CCCN(C(C)=O)CC4)ncn3)n2)cc1 [Compound 91] | < 50 | < 50 | – | –
7 | CCCOC(=O)Nc1ccc(Nc2nc(N)n(-c3cc(N4CCCN(C(C)=O)CC4)ncn3)n2)cc1 [Compound 92] | < 50 | < 50 | – | –
8 | CC(=O)N1CCCN(c2cc(-n3nc(Nc4ccc(NC(=O)OC(C)C)cc4)nc3N)ncn2)CC1 [Compound 93] | < 50 | < 50 | – | –
9 | CC(=O)N1CCCN(c2cc(-n3nc(Nc4ccc(NC(=O)OCC(C)C)cc4)nc3N)ncn2)CC1 [Compound 94] | < 50 | < 50 | – | –
10 | CC(=O)N1CCCN(c2cc(-n3nc(Nc4ccc(NC(=O)OCC(C)(C)C)cc4)nc3N)ncn2)CC1 [Compound 95] | < 50 | < 50 | – | –
11 | CC(=O)N1CCCN(c2cc(-n3nc(Nc4ccc(NC(=O)Oc5ccc(C)cc5)cc4)nc3N)ncn2)CC1 [Compound 96] | < 50 | < 50 | – | –
12 | CC(=O)N1CCCN(c2cc(-n3nc(Nc4ccc(NC(=O)O[C@H]5C[C@H](C)CC[C@H]5C(C)C)cc4)nc3N)ncn2)CC1 [Compound 97] | 50 to 500 | 50 to 500 | – | –
13 | CC(=O)N1CCCN(c2cc(-n3nc(Nc4ccc(NC(=O)O[C@@H]5C[C@@H](C)CC[C@@H]5C(C)C)cc4)nc3N)ncn2)CC1 [Compound 98] | 50 to 500 | 50 to 500 | – | –
14 | CC(=O)N1[C@H](C)CN(c2cc(-n3nc(Nc4ccc(N)cc4)nc3N)ccn2)C[C@@H]1C [Compound 99] | < 50 | < 50 | – | –
15 | CC(=O)N1[C@H](C)CN(c2cc(-n3nc(Nc4ccc(NC(=O)OCC(C)C)cc4)nc3N)ccn2)C[C@@H]1C [Compound 100] | < 50 | < 50 | – | –
16 | CCOC(=O)Nc1ccc(Nc2nc(N)n(-c3ccnc(N4C[C@@H](C)N(C(C)=O)[C@@H](C)C4)c3)n2)cc1 [Compound 101] | < 50 | < 50 | – | –
17 | CCCOC(=O)Nc1ccc(Nc2nc(N)n(-c3ccnc(N4C[C@@H](C)N(C(C)=O)[C@@H](C)C4)c3)n2)cc1 [Compound 102] | < 50 | < 50 | – | –
18 | CC(=O)N1[C@H](C)CN(c2cc(-n3nc(Nc4ccc(NC(=O)OC(C)C)cc4)nc3N)ccn2)C[C@@H]1C [Compound 103] | < 50 | < 50 | – | –
19 | CC(=O)N1[C@H](C)CN(c2cc(-n3nc(Nc4ccc(NC(=O)OCC(C)(C)C)cc4)nc3N)ccn2)C[C@@H]1C [Compound 104] | < 50 | < 50 | – | –
20 | CCNC(=O)Nc1ccc(Nc2nc(N)n(-c3ccnc(N4C[C@@H](C)N(C(C)=O)[C@@H](C)C4)c3)n2)cc1 [Compound 105] | < 50 | < 50 | – | –
21 | CC(=O)N1[C@H](C)CN(c2cc(-n3nc(Nc4ccc(N(C)C(=O)Oc5ccc(C)cc5)cc4)nc3N)ncn2)C[C@@H]1C [Compound 121] | – | – | < 50 | < 50

Further lines, with some results ahead:

Row | Ki (JAK-2 enzyme; [1]) [nM] | Ki (JAK3; [2]) [nM] | SMILES | Ki (JAK-2 enzyme) [nM] | Ki (JAK3) [nM]
22 | < 50 | < 50 | CCCNC(=O)Nc1ccc(Nc2nc(N)n(-c3ccnc(N4C[C@@H](C)N(C(C)=O)[C@@H](C)C4)c3)n2)cc1 [Compound 106] | – | –
23 | < 50 | < 50 | CC(=O)N1[C@H](C)CN(c2cc(-n3nc(Nc4ccc(NC(=O)NC(C)C)cc4)nc3N)ccn2)C[C@@H]1C [Compound 107] | – | –
24 | < 50 | < 50 | CC(=O)N1[C@H](C)CN(c2cc(-n3nc(Nc4ccc(NC(=O)NC(C)(C)C)cc4)nc3N)ccn2)C[C@@H]1C [Compound 108] | – | –
25 | < 50 | < 50 | CC(=O)N1[C@H](C)CN(c2cc(-n3nc(Nc4ccc(NC(=O)OC(C)(C)C)cc4)nc3N)ccn2)C[C@@H]1C [Compound 109] | – | –
26 | < 50 | < 50 | CC(=O)N1[C@H](C)CN(c2cc(-n3nc(Nc4ccc(NC(=O)CCC(C)C)cc4)nc3N)ccn2)C[C@@H]1C [Compound 110] | – | –
27 | < 50 | < 50 | CC(=O)N1[C@H](C)CN(c2cc(-n3nc(Nc4ccc(NC(=O)CC(C)C)cc4)nc3N)ccn2)C[C@@H]1C [Compound 111] | – | –
28 | < 50 | < 50 | CC(=O)Nc1ccc(Nc2nc(N)n(-c3cc(N4C[C@@H](C)N(C(C)=O)[C@@H](C)C4)ncn3)n2)cc1 [Compound 112] | – | –
29 | < 50 | < 50 | CCOC(=O)N1CCN(c2ccc(Nc3nc(N)n(-c4ccnc(N5C[C@@H](C)N(C(C)=O)[C@@H](C)C5)c4)n3)cc2)CC1 [Compound 113] | – | –
30 | < 50 | < 50 | CC(=O)N1[C@H](C)CN(c2cc(-n3nc(Nc4ccc(N(C)C(=O)OC(C)(C)C)cc4)nc3N)ncn2)C[C@@H]1C [Compound 114] | – | –
31 | < 50 | < 50 | CC(=O)N1CCCN(c2cc(-n3nc(Nc4ccc(N(C)C(=O)OC(C)(C)C)cc4)nc3N)ncn2)CC1 [Compound 115] | – | –
32 | < 50 | < 50 | CNc1ccc(Nc2nc(N)n(-c3cc(N4C[C@@H](C)N(C(C)=O)[C@@H](C)C4)ncn3)n2)cc1 [Compound 116] | – | –
33 | < 50 | < 50 | CNc1ccc(Nc2nc(N)n(-c3cc(N4CCCN(C(C)=O)CC4)ncn3)n2)cc1 [Compound 117] | – | –
34 | < 50 | < 50 | CCCOC(=O)N(C)c1ccc(Nc2nc(N)n(-c3cc(N4C[C@@H](C)N(C(C)=O)[C@@H](C)C4)ncn3)n2)cc1 [Compound 118] | – | –
35 | < 50 | < 50 | CC(=O)N1[C@H](C)CN(c2cc(-n3nc(Nc4ccc(N(C)C(=O)OC(C)C)cc4)nc3N)ncn2)C[C@@H]1C [Compound 119] | – | –
36 | < 50 | < 50 | CC(=O)N1[C@H](C)CN(c2cc(-n3nc(Nc4ccc(N(C)C(=O)OCC(C)C)cc4)nc3N)ncn2)C[C@@H]1C [Compound 120] | – | –
37 | < 50 | < 50 | CC(C)(C)OC(=O)N1CCN(c2ccc(Nc3nc(N)n(-c4cc(N5CCCN(C(=O)CC#N)CC5)ncn4)n3)cc2)CC1 [Compound 122] | – | –
38 | < 50 | < 50 | N#CCC(=O)N1CCCN(c2cc(-n3nc(Nc4ccc(N5CCNCC5)cc4)nc3N)ncn2)CC1 [Compound 123] | – | –
39 | < 50 | < 50 | CCOC(=O)N1CCN(c2ccc(Nc3nc(N)n(-c4cc(N5CCCN(C(=O)CC#N)CC5)ncn4)n3)cc2)CC1 [Compound 124] | – | –
40 | < 50 | < 50 | CCCOC(=O)N1CCN(c2ccc(Nc3nc(N)n(-c4cc(N5CCCN(C(=O)CC#N)CC5)ncn4)n3)cc2)CC1 [Compound 125] | – | –
41 | < 50 | < 50 | COC(=O)N(C)c1ccc(Nc2nc(N)n(-c3cc(N4CCCN(C(C)=O)CC4)ncn3)n2)cc1 [Compound 126] | – | –
42 | < 50 | < 50 | CCOC(=O)N(C)c1ccc(Nc2nc(N)n(-c3cc(N4CCCN(C(C)=O)CC4)ncn3)n2)cc1 [Compound 127] | – | –
